Experiments:
[1] = molecular target: BDNF/NT-3 growth factors receptor (Homo sapiens) (UniProt Q16620); assay: TrkB Kinase panel; conditions: Compound concentration 1.0 uM
[2] = molecular target: Dual specificity protein kinase CLK3 (Homo sapiens) (UniProt P49761); assay: CLK3 Kinase panel; conditions: Compound concentration 1.0 uM
[3] = molecular target: Serine/threonine-protein kinase B-raf (Homo sapiens) (UniProt P15056); assay: B-Raf Kinase panel; conditions: Compound concentration 1.0 uM
[4] = molecular target: Insulin-like growth factor 1 receptor (Homo sapiens) (UniProt P08069); assay: IGF1R Kinase panel; conditions: Compound concentration 1.0 uM
[5] = molecular target: SRSF protein kinase 1 (Homo sapiens) (UniProt Q96SB4); assay: SRPK1 Kinase panel; conditions: Compound concentration 1.0 uM
[6] = molecular target: Dual specificity tyrosine-phosphorylation-regulated kinase 4 (Homo sapiens) (UniProt Q9NR20); assay: DYRK4 Kinase panel; conditions: Compound concentration 1.0 uM
[7] = molecular target: Mitogen-activated protein kinase kinase kinase 2 (Homo sapiens) (UniProt Q9Y2U5); assay: MEKK2 Kinase panel; conditions: Compound concentration 1.0 uM
[8] = molecular target: Mitogen-activated protein kinase 11 (Homo sapiens) (UniProt Q15759); assay: p38_beta Kinase panel; conditions: Compound concentration 1.0 uM
[9] = molecular target: Insulin receptor-related protein (Homo sapiens) (UniProt P14616); assay: IRR Kinase panel; conditions: Compound concentration 1.0 uM
[10] = molecular target: Serine/threonine-protein kinase 16 (Homo sapiens) (UniProt O75716); assay: STK16 Kinase panel; conditions: Compound concentration 1.0 uM
[11] = molecular target: Dual specificity mitogen-activated protein kinase kinase 6 (Homo sapiens) (UniProt P52564); assay: MKK6 Kinase panel; conditions: Compound concentration 1.0 uM
[12] = molecular target: Ephrin type-A receptor 8 (Homo sapiens) (UniProt P29322); assay: EphA8 Kinase panel; conditions: Compound concentration 1.0 uM
[13] = molecular target: Eukaryotic elongation factor 2 kinase (Homo sapiens) (UniProt O00418); assay: eEF_2K Kinase panel; conditions: Compound concentration 1.0 uM
[14] = molecular target: Serine/threonine-protein kinase Nek1 (Homo sapiens) (UniProt Q96PY6); assay: NEK1 Kinase panel; conditions: Compound concentration 1.0 uM
[15] = molecular target: Macrophage-stimulating protein receptor (Homo sapiens) (UniProt Q04912); assay: Ron Kinase panel; conditions: Compound concentration 1.0 uM
[16] = molecular target: Tyrosine-protein kinase TXK (Homo sapiens) (UniProt P42681); assay: TXK Kinase panel; conditions: Compound concentration 1.0 uM
[17] = molecular target: Serine/threonine-protein kinase mTOR (Homo sapiens) (UniProt P42345); assay: mTOR Kinase panel; conditions: Compound concentration 1.0 uM
[18] = molecular target: Interleukin-1 receptor-associated kinase 1 (Homo sapiens) (UniProt P51617); assay: IRAK1 Kinase panel; conditions: Compound concentration 1.0 uM
[19] = molecular target: Misshapen-like kinase 1 (Homo sapiens, UniProt Q8N4C8); assay: Mink1 Kinase panel
[20] = molecular target: Protein kinase C beta type (Homo sapiens) (UniProt P05771); assay: PKC_beta1 Kinase panel; conditions: Compound concentration 1.0 uM
[21] = molecular target: Death-associated protein kinase 1 (Homo sapiens) (UniProt P53355); assay: DAPK1 Kinase panel; conditions: Compound concentration 1.0 uM
[22] = molecular target: Dual specificity tyrosine-phosphorylation-regulated kinase 1A (Homo sapiens) (UniProt Q13627); assay: DYRK1A Kinase panel; conditions: Compound concentration 1.0 uM
[23] = molecular target: G protein-coupled receptor kinase 6 (Homo sapiens) (UniProt P43250); assay: GRK6 Kinase panel; conditions: Compound concentration 1.0 uM
[24] = (§1) TAK1-TAB1 Kinase panel; parameters: species or system Homo sapiens
[25] = organism: Homo sapiens; assay: as §1; conditions: Compound concentration 1.0 uM
[26] = molecular target: Protein kinase C alpha type (Homo sapiens) (UniProt P17252); assay: PKC_alpha Kinase panel; conditions: Compound concentration 1.0 uM
[27] = molecular target: NUAK family SNF1-like kinase 1 (Homo sapiens) (UniProt O60285); assay: ARK5 Kinase panel; conditions: Compound concentration 1.0 uM
[28] = molecular target: Insulin receptor (Homo sapiens) (UniProt P06213); assay: InsR Kinase panel; conditions: Compound concentration 1.0 uM
[29] = molecular target: Tyrosine-protein kinase FRK (Homo sapiens) (UniProt P42685); assay: Frk Kinase panel; conditions: Compound concentration 1.0 uM
[30] = molecular target: Epithelial discoidin domain-containing receptor 1 (Homo sapiens) (UniProt Q08345); assay: DDR1 Kinase panel; conditions: Compound concentration 1.0 uM
[31] = molecular target: 5-hydroxytryptamine receptor 6 (Homo sapiens) (UniProt P50406); conditions: Compound concentration 10.0 uM
[32] = molecular target: Myosin light chain kinase, smooth muscle (Homo sapiens) (UniProt Q15746); assay: MYLK(smMLCK) Kinase panel; conditions: Compound concentration 1.0 uM
[33] = molecular target: Calcium/calmodulin-dependent protein kinase type II subunit alpha (Homo sapiens) (UniProt Q9UQM7); assay: CamKII_alpha Kinase panel; conditions: Compound concentration 1.0 uM
[34] = molecular target: Casein kinase II subunit alpha (Homo sapiens) (UniProt P68400); assay: CK2_alpha1 Kinase panel; conditions: Compound concentration 1.0 uM
[35] = molecular target: D(3) dopamine receptor (Homo sapiens) (UniProt P35462); conditions: Compound concentration 10.0 uM
[36] = molecular target: Tyrosine-protein kinase ABL1 (Homo sapiens) (UniProt P00519); assay: Abl Kinase panel; conditions: Compound concentration 1.0 uM
[37] = molecular target: Casein kinase I isoform alpha (Homo sapiens) (UniProt P48729); assay: CK1_alpha1 Kinase panel; conditions: Compound concentration 1.0 uM
[38] = molecular target: Tyrosine-protein kinase SYK (Homo sapiens) (UniProt P43405); assay: Syk Kinase panel; conditions: Compound concentration 1.0 uM
[39] = molecular target: DNA-dependent protein kinase catalytic subunit (Homo sapiens) (UniProt P78527); assay: DNA_PK Kinase panel; conditions: Compound concentration 1.0 uM
[40] = molecular target: Mitogen-activated protein kinase 1 (Homo sapiens) (UniProt P28482); assay: ERK2 Kinase panel; conditions: Compound concentration 1.0 uM
[41] = molecular target: Receptor tyrosine-protein kinase erbB-4 (Homo sapiens) (UniProt Q15303); assay: ErbB4 Kinase panel; conditions: Compound concentration 1.0 uM
[42] = molecular target: Ephrin type-A receptor 7 (Homo sapiens) (UniProt Q15375); assay: EphA7 Kinase panel; conditions: Compound concentration 1.0 uM
[43] = molecular target: G protein-coupled receptor kinase 5 (Homo sapiens) (UniProt P34947); assay: GRK5 Kinase panel; conditions: Compound concentration 1.0 uM
[44] = molecular target: Tyrosine-protein kinase CSK (Homo sapiens) (UniProt P41240); assay: CSK Kinase panel; conditions: Compound concentration 1.0 uM
[45] = molecular target: Inhibitor of nuclear factor kappa-B kinase subunit beta (Homo sapiens) (UniProt O14920); assay: IKK_beta Kinase panel; conditions: Compound concentration 1.0 uM
[46] = molecular target: Proto-oncogene tyrosine-protein kinase receptor Ret (Homo sapiens) (UniProt P07949); assay: Ret Kinase panel; conditions: Compound concentration 1.0 uM

Sequence of Mitogen-activated protein kinase 1 (Homo sapiens) (P28482 whole entry): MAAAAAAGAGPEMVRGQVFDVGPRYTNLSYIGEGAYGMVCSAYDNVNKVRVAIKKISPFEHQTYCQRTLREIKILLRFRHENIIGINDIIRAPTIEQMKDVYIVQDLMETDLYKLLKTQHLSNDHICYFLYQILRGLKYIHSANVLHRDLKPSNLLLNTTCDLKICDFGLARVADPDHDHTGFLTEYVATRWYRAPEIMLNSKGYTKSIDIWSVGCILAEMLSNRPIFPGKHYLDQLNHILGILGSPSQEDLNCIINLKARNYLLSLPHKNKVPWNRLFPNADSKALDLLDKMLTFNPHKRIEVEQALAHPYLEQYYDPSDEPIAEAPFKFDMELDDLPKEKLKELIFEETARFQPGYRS
Sequence of Inhibitor of nuclear factor kappa-B kinase subunit beta (Homo sapiens) (O14920 whole entry): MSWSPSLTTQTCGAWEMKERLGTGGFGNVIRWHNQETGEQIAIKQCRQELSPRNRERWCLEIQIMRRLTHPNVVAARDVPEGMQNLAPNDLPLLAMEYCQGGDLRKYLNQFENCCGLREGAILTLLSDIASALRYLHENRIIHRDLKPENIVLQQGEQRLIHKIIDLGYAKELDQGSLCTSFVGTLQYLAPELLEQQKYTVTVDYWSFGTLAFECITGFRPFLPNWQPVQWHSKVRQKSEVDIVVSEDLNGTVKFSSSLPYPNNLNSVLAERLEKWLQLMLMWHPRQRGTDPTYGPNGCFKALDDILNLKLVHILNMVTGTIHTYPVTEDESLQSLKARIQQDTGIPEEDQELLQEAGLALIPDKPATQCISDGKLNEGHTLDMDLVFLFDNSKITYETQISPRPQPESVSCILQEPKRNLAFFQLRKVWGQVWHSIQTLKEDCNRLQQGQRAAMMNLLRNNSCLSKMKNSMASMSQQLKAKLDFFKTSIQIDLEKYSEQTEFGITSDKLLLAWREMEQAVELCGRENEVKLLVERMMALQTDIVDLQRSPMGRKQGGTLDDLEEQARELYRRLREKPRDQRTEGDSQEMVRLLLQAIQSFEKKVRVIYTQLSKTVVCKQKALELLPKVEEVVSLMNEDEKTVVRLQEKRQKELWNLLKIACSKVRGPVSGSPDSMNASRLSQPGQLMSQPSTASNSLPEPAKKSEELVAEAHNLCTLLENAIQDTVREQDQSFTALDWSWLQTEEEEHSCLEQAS
Sequence of Ephrin type-A receptor 8 (Homo sapiens) (P29322 whole entry): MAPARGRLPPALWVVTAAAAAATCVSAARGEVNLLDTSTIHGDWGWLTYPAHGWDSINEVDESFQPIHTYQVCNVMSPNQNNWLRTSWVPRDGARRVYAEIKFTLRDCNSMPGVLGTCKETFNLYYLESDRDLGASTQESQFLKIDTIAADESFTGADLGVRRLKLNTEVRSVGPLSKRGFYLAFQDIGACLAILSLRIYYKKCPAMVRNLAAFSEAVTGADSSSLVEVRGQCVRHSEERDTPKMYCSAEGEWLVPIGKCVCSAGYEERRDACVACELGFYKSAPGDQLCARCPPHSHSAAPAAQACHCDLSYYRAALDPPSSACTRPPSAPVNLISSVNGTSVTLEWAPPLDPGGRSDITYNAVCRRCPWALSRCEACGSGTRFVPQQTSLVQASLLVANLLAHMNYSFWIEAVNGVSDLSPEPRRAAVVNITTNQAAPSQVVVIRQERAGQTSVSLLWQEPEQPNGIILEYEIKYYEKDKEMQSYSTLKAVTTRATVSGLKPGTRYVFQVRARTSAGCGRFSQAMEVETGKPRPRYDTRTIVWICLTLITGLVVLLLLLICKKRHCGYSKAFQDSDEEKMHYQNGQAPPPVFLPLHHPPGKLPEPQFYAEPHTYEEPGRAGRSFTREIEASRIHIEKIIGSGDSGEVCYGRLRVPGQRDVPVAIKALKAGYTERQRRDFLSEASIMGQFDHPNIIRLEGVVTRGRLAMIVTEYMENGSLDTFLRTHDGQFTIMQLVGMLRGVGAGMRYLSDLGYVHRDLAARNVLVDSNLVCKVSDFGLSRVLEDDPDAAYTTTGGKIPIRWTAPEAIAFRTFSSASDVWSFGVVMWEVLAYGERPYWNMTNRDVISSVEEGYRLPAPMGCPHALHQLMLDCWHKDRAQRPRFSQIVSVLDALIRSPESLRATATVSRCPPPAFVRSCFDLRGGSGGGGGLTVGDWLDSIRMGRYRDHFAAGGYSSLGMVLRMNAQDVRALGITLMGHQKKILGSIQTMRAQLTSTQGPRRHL
Sequence of Interleukin-1 receptor-associated kinase 1 (Homo sapiens) (P51617 whole entry, looked up): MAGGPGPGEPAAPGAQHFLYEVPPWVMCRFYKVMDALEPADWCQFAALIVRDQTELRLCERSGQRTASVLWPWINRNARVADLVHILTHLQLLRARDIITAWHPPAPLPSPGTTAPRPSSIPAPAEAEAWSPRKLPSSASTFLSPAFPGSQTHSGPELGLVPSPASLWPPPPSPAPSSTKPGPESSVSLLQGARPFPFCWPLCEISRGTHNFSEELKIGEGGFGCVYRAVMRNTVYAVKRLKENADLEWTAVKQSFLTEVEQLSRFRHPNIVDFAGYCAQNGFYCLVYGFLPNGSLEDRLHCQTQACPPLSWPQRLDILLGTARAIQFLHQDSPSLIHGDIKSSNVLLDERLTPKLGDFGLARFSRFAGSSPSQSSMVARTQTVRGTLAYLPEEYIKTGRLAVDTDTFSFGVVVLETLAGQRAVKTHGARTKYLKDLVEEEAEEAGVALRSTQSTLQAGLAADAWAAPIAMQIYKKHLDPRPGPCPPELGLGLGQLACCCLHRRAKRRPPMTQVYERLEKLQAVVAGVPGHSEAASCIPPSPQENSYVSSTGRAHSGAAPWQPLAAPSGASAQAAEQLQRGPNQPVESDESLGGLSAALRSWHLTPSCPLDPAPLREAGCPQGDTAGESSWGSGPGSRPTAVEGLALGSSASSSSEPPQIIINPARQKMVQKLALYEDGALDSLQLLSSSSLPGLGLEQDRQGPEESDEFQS
Sequence of SRSF protein kinase 1 (Homo sapiens) (Q96SB4 whole entry): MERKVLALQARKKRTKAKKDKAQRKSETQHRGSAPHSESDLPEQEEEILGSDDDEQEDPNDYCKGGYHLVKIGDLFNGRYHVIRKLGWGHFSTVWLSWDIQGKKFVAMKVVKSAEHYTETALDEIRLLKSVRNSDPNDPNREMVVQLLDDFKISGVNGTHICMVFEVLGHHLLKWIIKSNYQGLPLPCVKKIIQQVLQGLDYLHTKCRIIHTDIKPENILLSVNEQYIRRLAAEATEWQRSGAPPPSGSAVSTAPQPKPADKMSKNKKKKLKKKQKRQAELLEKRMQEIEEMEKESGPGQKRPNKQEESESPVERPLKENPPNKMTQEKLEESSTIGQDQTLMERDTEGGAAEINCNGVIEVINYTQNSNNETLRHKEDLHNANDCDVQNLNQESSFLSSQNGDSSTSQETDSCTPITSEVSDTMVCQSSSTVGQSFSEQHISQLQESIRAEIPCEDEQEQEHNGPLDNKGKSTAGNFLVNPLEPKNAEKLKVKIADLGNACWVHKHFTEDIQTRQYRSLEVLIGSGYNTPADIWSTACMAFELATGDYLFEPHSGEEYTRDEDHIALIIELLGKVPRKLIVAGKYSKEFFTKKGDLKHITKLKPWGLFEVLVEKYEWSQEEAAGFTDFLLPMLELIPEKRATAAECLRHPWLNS
Sequence of NUAK family SNF1-like kinase 1 (Homo sapiens) (O60285 whole entry): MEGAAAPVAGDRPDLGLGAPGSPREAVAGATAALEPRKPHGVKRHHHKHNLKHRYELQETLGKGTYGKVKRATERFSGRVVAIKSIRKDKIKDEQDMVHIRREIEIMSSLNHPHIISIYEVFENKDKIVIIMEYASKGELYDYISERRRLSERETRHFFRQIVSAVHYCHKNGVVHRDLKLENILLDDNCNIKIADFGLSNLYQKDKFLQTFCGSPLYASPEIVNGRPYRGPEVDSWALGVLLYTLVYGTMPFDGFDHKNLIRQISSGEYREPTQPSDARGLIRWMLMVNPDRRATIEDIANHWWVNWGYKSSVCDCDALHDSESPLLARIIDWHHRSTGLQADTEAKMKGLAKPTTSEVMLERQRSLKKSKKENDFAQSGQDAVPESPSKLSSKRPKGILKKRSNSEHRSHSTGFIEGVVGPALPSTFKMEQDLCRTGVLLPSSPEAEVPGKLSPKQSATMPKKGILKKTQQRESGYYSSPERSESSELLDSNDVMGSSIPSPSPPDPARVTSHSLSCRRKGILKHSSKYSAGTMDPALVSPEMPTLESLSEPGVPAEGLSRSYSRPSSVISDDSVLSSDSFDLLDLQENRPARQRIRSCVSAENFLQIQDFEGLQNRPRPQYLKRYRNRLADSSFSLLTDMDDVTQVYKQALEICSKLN
Sequence of Dual specificity mitogen-activated protein kinase kinase 6 (Homo sapiens) (P52564 whole entry): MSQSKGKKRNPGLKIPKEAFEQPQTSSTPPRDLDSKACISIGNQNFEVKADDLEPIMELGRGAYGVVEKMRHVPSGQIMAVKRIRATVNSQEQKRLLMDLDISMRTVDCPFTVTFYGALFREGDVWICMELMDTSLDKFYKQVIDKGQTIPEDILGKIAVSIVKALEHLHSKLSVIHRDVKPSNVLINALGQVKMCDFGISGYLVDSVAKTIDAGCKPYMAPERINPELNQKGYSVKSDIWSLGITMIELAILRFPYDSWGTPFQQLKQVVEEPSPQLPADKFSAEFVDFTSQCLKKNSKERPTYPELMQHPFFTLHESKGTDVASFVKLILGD
Sequence of Casein kinase I isoform alpha (Homo sapiens) (P48729 2-337 limits assumed): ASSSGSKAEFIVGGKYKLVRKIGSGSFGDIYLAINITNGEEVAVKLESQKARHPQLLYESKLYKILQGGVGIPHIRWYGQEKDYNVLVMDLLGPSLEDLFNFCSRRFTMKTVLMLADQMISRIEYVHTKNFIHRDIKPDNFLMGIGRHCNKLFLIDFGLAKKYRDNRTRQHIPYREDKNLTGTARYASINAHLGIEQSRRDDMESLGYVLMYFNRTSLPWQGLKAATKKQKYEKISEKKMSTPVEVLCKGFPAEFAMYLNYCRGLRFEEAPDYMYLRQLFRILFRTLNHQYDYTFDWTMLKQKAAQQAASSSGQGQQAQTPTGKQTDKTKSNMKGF

For CC(C)(O)[C@H](F)CN1Cc2cc(NC(=O)c3cnn4cccnc34)c(N3CCOCC3)cc2C1=O, the inhibition [1] was 86%, the inhibition [2] was 10% and the inhibition [3] was -0.5%. It also gave an inhibition [4] of 11.5%, an inhibition [5] of 1.5% and an inhibition [6] of -5%. It also gave an inhibition [7] of 3.5%, an inhibition [8] of 4% and an inhibition [9] of 18%. The inhibition [10] was 15%, the inhibition [11] was -5.5% and the inhibition [12] was 13%. For the same compound, the inhibition [13] was -0%, the inhibition [14] was 11% and the inhibition [15] was 2.5%. The inhibition [16] was 34%, the inhibition [17] was -0% and the inhibition [18] was 64.3%. It also gave an IC50 [19] of 879 nM, an inhibition ([19]; Compound concentration 1.0 uM) of 80.5% and an inhibition [20] of 4%. For the same compound, the inhibition [21] was 5.5%, the inhibition [22] was 2% and the inhibition [23] was 3.5%. For the same compound, the IC50 [24] was 966 nM, the inhibition [25] was 74.5% and the inhibition [26] was 11%. For the same compound, the inhibition [27] was 23.5%, the inhibition [28] was 34.5% and the inhibition [29] was 5.5%. For the same compound, the inhibition [30] was -2%, the inhibition [31] was 7.46% and the inhibition [32] was 12%. For the same compound, the inhibition [33] was 2.5%, the inhibition [34] was 3.5% and the inhibition [35] was -1.84%. The inhibition [36] was 9.8%, the inhibition [37] was -0.5% and the inhibition [38] was 9%. It also gave an inhibition [39] of 9%, an inhibition [40] of 0.5% and an inhibition [41] of 5%. It also gave an inhibition [42] of 20%, an inhibition [43] of -2% and an inhibition [44] of 22%. The inhibition [45] was 1.5% and the inhibition [46] was 31.5%.

From ChEMBL document CHEMBL4879554, “Data for DCP probe GNE-2256” (2021)
